Entries after “also recorded” stand apart in the source; their conditions may differ.
How the values were obtained:
[1] = system: PBMCs from normal or HCV infected subjects; assay: IFN-α secretion by PBMC with Intron A, Ribavirin or CpG alone or in combination (ELISA); assay type: cell-based, human
Text: (§1) All oligonucleotide stocks were resuspended in TE buffer at pH 8.0 (OmniPer®; EM Science, Gibbstown, N.J.). Dilutions of various ODNs were made in RPMI 1640 complete media (Gibco BRL, Grand Island, N.Y.) containing 10% heat inactivated, normal human AB serum (Wisent Inc, St. Bruno, QC) and 1% penicillin/streptomycin (Gibco BRL, Grand Island, N.Y.) just prior to their use in cell assays. For the exogenous IFN-α synergy experiments, Intron A (Interferon Alfa-2b, DIN 02223406, Schering Canada Inc., Pointe-Claire, Quebec, Canada) was added to the ODN solutions to give final concentrations of 125 or 1000 IU/ml. Ribavirin (CAS 36791-04-5, Calbiochem, CN Biosciences Inc., La Jolla, Calif., USA) was reconstituted with sterile distilled water to produce a 500 μm stock and diluted in media as described above, to give a final concentration of 5 μm in wells. Cells were incubated at 37° C. with 5% CO2. After 48 h, cell supernatants were collected from each well and frozen at −80° C.
(§2) Peripheral blood mononuclear cells (PBMCs) were purified by centrifugation over Ficoll-Hypaque (Amersham Pharmacia Biotech, Uppsala, Sweden) at 400×g for, 35 min. Cells were resuspended at a concentration of 10×10^6/ml in RPMI complete media containing 10% normal human AB serum (heat inactivated) and 1% penicillin/streptomycin.
(§3) Freshly isolated PBMCs were resuspended at 10×10^6/ml (2× final concentration) and 100 μl of cells were added to each well of a 96 well flat-bottom plate containing an equal volume of ODN solution (2× final desired concentration). A range of concentrations (1, 3, 6 μg/ml) was tested for each ODN. Cells were incubated at 37° C. with 5% CO2. After 48 h, cell supernatants were collected from each well and frozen at −80° C. until assayed.
(§4) IFN-α, IP-10, IL-10 and IFN-levels in supernatants were measured using commercial ELISA Kits (R&D Systems, Minneapolis, Minn., USA; IP-10, Cat# DIP 100, IL-10, Cat# D1000, IFN-g Cat# DIF50 or PBL Biomedical, IFN-α Cat# 4110S). When measured ELISA values were below the detection limit of the kit as specified by the manufacturer, a value equal to the lowest detectable limit was entered into data tables.

[2] = system: PBMCs from normal or HCV-infected subjects; assay: IFN-γ secretion by PBMC after 48 h with CpG ODN (ELISA); assay type: cell-based, human; conditions: HCV-infected and normal PBMCs similar, FIG. 5/6
Description: as §2, §3, §4

[3] = system: PBMCs from normal subjects; assay: IFN-α secretion by PBMC from normal subjects after 48 h with CpG ODN (ELISA); assay type: cell-based, human; conditions: for IFN-α secretion level: PBMC from normal volunteers, 48 h, FIG. 1/3; for R, linear regression of number of pDC against amount of IFN-α secreted: normal subjects, pDC number by FACS
Text: as §1, §2, §3, §4

[4] = system: B cells in PBMCs from HCV-infected or normal donors; assay: B-cell proliferation (3H-thymidine, stimulation index); assay type: cell-based, human; conditions: HCV-infected and normal populations, 5 days, FIGS. 8 and 9
Description: as §2
Cells were isolated as described above and resuspended at 1×10^6/ml in complete RPMI media 100 μl of cells were added to each well of round-bottom 96 well plates. ODN solutions (100 μl) were added to wells to give the selected range of final concentrations (1, 3, 6 μg/ml). Cells were cultured for 5 days and then pulsed with ^3H-Thymidine (1 μCi/well) for 18 h, before harvesting onto filter paper for measuring radioactivity. Results are reported as stimulation index (SI) with respect to untreated media control.

[5] = system: PBMCs from HCV-infected subjects; assay: IFN-α secretion by PBMC from HCV chronic carriers after 48 h with CpG ODN (ELISA); assay type: cell-based, human; conditions: for R, linear regression of number of pDC against amount of IFN-α secreted: HCV infected subjects, pDC number by FACS; for IFN-α secretion level: PBMC from HCV chronic carriers, 48 h, FIG. 1/3/4
Text: as §1, §2, §3, §4

[6] = system: PBMCs from normal or HCV-infected subjects; assay: IP-10 secretion by PBMC after 48 h with CpG ODN (ELISA); assay type: cell-based, human; conditions: similar in normal subjects and HCV chronic carriers, FIG. 7
Description: as §2, §3, §4

[7] = adjuvant to a commercial hepatitis B vaccine, phase I/II; cited from earlier work

Compound | induction of IFN-α secretion ([1]; HCV-infected PBMCs, on their own or together, FIG. 11) | induction of IFN-α secretion ([1]; PBMCs from normal or HCV infected subjects, alone or in combination) | effect on the efficacy of CpG ([1]; combined with CpG ODN) | immunostimulatory activity ([1]; human PBMCs) | endogenous IFN-α production ([1]; in combination with Intron A) | IFN-γ secretion level [2] | IFN-α secretion level [3] | R, linear regression of number of pDC against amount of IFN-α secreted [3] | B cell stimulation [4] | IFN-α induced relative to the normal level ([5]; HCV chronic carrier PBMC versus normal PBMC, FIG. 1) | R, linear regression of number of pDC against amount of IFN-α secreted [5] | IFN-α secretion level [5] | IP-10 secretion level [6] | function as vaccine adjuvant [7] | IFN-α secretion level ([5]; listed as B) | IFN-α secretion level ([5]; listed as Class B) | synergy with exogenous IFN-α for IFN-α secretion ([1]; PBMCs from HCV infected subjects, combination with Intron-A) | IFN-α secretion level ([5]; listed as C)
NC(=O)c1ncn([C@@H]2O[C@H](CO)[C@@H](O)[C@H]2O)n1 [Ribavirin] | Neither Ribavirin nor Intron A, on their own or together, resulted in the induction of IFN-α secretion | Neither commercial Intron-A (IFN-α-2b) nor Ribavirin, alone or in combination, were capable of inducing IFN-α secretion | reduced the efficacy of CpG | no immunostimulatory activity | did not enhance endogenous IFN-α production | – | – | – | – | – | – | – | – | – | – | – | – | –
G-G-GGACGACGTCGTGG-G-G-G-G-G (DNA GGGGACGACGTCGTGGGGGGG; chemistry not given here) [SEQ ID NO. 1, A class CpG ODN] | – | – | – | – | – | low levels | very high levels | 0.43 | poor stimulator of B cells | about 50% | 0.02 | higher levels | Highest levels | – | – | – | – | –
TCGTCGTTTTGTCGTTTTGTCGTT [SEQ ID NO. 2] | – | – | – | – | – | moderate amounts | only low levels | – | strongly activated B cells | – | – | – | lowest | functions well as a vaccine adjuvant | the same as those obtained with the normal PBMCs | lower levels | – | –
TCGTCGTTTTCGGCGGCCGCCG (chemistry not given here) [SEQ ID NO. 4, C class CpG ODN] | – | – | – | – | – | high concentrations | moderately high levels | 0.58 | strongly activated B cells | – | 0.08 | – | next highest | – | – | – | synergy | the same as those obtained with the normal PBMCs; also recorded: higher levels
